# Earlier results as cited in EP2074993A1, “Venlafaxine-containing film-coated modified-release tablets” (Biovail Laboratories International S.r.l., priority 2007, dated 2009).
# Conditions: in vivo
row,SMILES,elimination half-life
1,"COc1ccc(C(CN(C)C)C2(O)CCCCC2)cc1 (racemic) [Venlafaxine, (R/S)-1-[2-(dimethylamino)-1-(4-methoxyphenyl)ethyl]cyclohexanol]",about 4 hours
2,CN(C)CC(c1ccc(O)cc1)C1(O)CCCCC1 (centres unmarked) [O-desmethylvenlafaxine],about 8 hours
